Literature values, collected in patent US6746697B2, “Composition containing Heliopsis longipes root extract and oral carrier” (Phytos, Inc., priority 2000, dated 2004).

Tests used:
mice = details: orally to mice
[1] = tested on: certain microorganisms (Gram positive and Gram negative bacteria); details: purified affinin from ethanol extract; toxicity varying for Gram positive and Gram negative bacteria

For C/C=C/C=C\CC/C=C/C(=O)NCC(C)C [affinin, N-isobutyl-2E, 6Z, 8E-decatrienamide], the analgesic effect (mice; aqueous solution, doses from 2.5 to 10.0 mg/kg) is given as “analgesic effect”, the deaths (mice; highest dose (10.0 mg/kg)) is given as “two out of five deaths” and the “effect on normal motor activity” value (mice; highest dose (10.0 mg/kg)) is given as “severe depression of normal motor activity”. For the same compound, the toxicity to microorganisms [1] was “toxic to certain microorganisms”.
